Legend:
Na,K-ATPase α1 isoform [1] = target: T1, Na,K-ATPase α1 isoform (Mus musculus, UniProt Q8VDN2); assay: Na,K-ATPase activity of mouse kidney membranes, dose-response; type: biochemical
T1 construct: gene Atp1a1; native mouse kidney membrane preparation, primarily α1 isoform

Pdr5p = target: T2, Pdr5p (Saccharomyces cerevisiae, UniProt P33302); assay: ATPase (Pi release) assay on Pdr5p-overexpressing plasma membranes, oligomycin-sensitive activity; type: biochemical
T2 construct: gene PDR5; plasma membranes containing the overexpressed Pdr5p (strain AD124567)
T2 sequence (P33302 whole entry): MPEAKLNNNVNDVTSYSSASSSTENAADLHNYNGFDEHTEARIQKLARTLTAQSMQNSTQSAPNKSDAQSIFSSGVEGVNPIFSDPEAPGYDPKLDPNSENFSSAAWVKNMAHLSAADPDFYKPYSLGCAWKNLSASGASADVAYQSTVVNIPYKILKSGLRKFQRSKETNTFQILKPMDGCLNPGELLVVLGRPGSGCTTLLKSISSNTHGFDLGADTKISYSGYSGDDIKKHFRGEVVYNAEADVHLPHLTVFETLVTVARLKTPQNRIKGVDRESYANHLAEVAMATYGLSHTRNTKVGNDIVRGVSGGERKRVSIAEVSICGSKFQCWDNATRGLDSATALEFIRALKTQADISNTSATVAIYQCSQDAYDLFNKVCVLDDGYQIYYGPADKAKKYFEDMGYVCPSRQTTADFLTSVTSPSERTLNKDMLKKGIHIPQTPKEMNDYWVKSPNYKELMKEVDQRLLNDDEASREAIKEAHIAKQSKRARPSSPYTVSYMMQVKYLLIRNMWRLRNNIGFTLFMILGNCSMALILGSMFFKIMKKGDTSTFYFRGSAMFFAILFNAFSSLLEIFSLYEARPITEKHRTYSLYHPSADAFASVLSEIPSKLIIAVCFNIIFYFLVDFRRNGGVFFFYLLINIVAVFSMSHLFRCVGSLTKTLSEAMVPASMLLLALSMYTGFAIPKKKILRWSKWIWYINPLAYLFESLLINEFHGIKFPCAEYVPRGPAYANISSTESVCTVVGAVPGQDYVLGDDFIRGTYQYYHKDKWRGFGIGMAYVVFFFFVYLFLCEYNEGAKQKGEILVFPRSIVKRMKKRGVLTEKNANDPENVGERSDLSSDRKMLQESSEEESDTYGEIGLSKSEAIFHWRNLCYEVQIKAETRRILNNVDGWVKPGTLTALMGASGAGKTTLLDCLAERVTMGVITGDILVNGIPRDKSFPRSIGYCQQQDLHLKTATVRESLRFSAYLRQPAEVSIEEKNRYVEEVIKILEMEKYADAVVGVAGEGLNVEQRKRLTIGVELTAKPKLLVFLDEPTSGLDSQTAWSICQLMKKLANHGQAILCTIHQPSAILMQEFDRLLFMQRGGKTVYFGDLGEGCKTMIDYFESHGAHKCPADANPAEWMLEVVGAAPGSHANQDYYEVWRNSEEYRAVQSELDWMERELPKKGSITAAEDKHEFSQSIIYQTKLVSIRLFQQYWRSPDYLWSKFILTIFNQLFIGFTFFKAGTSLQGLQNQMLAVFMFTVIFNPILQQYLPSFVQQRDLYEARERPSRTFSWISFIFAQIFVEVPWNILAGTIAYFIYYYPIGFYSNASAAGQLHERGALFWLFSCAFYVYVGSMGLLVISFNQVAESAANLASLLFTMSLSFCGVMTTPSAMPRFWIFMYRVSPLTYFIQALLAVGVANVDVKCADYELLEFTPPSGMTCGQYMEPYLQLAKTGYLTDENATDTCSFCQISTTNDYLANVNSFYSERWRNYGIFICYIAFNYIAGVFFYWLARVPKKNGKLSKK

Na,K-ATPase α1 isoform [2] = target: T3, Na,K-ATPase α1 isoform (Homo sapiens, UniProt P05023); assay: competition of 3H-ouabain radioligand binding on HeLa cells
T3 construct: gene ATP1A1; endogenous enzyme on HeLa cell monolayers

## C[C@H]1O[C@@H](O[C@H]2[C@@H](O)C[C@H](O[C@H]3[C@@H](O)C[C@H](O[C@H]4CC[C@@]5(C)[C@H](CC[C@@H]6[C@@H]5C[C@@H](O)[C@]5(C)[C@@H](C7=CC(=O)O/C7=C\c7ccccc7)CC[C@]65O)C4)O[C@@H]3C)O[C@@H]2C)C[C@H](O)[C@@H]1O [21-BD, 21-benzylidene digoxin]
Na,K-ATPase α1 isoform [1]
  Na,K-ATPase activity of mouse kidney membranes, dose-response: Similarly, 21-BD inhibited the mouse kidney Na,K-ATPase with similar kinetics
Pdr5p
  IC50: 1250 ± 360 nM
Na,K-ATPase α1 isoform [2]
  competition of 3H-ouabain radioligand binding on HeLa cells: 21-BD significantly competed with ouabain binding at concentrations in the µM range

Reference: publication PMC4188576 (PLoS ONE, 2014)
